{"source": "paper PMC7016805", "about": "“RK-33 Is a Broad-Spectrum Antiviral Agent That Targets DEAD-Box RNA Helicase DDX3X” (Cells, 2020)", "biological_target": "T1, DEAD-box helicase 3 X-linked (DDX3X) (Homo sapiens, UniProt O00571)", "T1 construct": "residues 1–580, N-terminal 6His tag", "T1 sequence (O00571 1-580)": "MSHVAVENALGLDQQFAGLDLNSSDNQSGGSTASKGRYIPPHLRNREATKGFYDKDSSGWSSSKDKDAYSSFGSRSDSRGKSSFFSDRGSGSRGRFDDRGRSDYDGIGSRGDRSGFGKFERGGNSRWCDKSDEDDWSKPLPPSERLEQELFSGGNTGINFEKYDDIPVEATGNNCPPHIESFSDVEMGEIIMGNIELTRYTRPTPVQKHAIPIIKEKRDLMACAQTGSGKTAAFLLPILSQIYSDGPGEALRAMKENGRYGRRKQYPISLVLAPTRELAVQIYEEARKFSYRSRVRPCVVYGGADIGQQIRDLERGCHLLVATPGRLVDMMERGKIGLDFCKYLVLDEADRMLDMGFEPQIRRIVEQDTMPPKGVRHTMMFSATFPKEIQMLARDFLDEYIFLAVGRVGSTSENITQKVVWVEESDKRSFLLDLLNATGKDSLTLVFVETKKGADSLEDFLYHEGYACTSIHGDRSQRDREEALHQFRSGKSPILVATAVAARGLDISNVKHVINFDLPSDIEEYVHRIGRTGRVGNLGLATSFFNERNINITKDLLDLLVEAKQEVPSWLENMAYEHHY", "assay": "ITC (one-site model); supported by multi-wavelength AUC, ATPase assay (IC50 […]) and RNA unwinding assay (IC50 […])", "type": "binding"}
{"smiles": "COc1ccc(Cn2cnc3c4ncn(Cc5ccc(OC)cc5)c4nc(=O)nc32)cc1", "note": "[RK-33]", "values": [{"measurement": "Kd", "result": 33, "unit": "µM"}]}
